This experiment deals with Heat shock protein HSP 90-alpha (Homo sapiens) (UniProt P07900). The experiment can be described thus: Hsp90 blockade concentration-response – dose response (AID 712). The settings on record: Hsp90 inhibition assay.

Broadly, the IC50 is the concentration needed to halve the response being measured. As usually defined, the pIC50 is −log10 of the IC50, conventionally taken in molar units.

SMILES strings stand for the structures. pIC50: −log10 of the molar value. Activity calls are given as the source filed them. No rule for the calls is given here. Some results are limits rather than exact numbers.

Turning to `COc1cc(NCC(O)CN(CC(C)C)CC(C)C)c2nc(C)ccc2c1` (stereo unspecified), the IC50 was > 50 µM (inactive).

For the compound `CCn1nnc(NC(=O)COc2cc(C)ccc2C(C)C)n1`, the IC50 was > 50 µM (inactive).

Take `O=C1C(C2=C(O)c3ccccc3C2=O)=Nc2ccccc21`: the IC50 is > 50 µM (inactive).

Turning to `OCCN(CCO)c1nc(N2CCCCC2)c2nc(N(CCO)CCO)nc(N3CCCCC3)c2n1`, the pIC50 is 4.68.

For `CCOC(=O)c1cnc(SC2CCc3ccccc3C2=O)nc1N` (stereo unspecified), the pIC50 was 4.82.

Regarding `O=C(OC1CCc2ccccc2C1=O)c1ccccc1O` (stereo unspecified), the IC50 was > 50 µM (inactive).

`N#Cc1c(N2CCCC2)nc(N)c2c(N)nc(N3CCCC3)cc12`: the pIC50 was 5.62.

Take `CC(=O)Oc1cc2c(C(=O)NCCCN3CCOCC3)c(C)oc2c2ccccc12`: the pIC50 is 5.33.

Turning to `CCOC(=O)NC1(Nc2ccc(Cl)cn2)Oc2ccccc2O1`, the IC50 is > 50 µM (inactive).

In the case of `COc1ccc(C2CC(c3ccccc3O)=NN2)cc1OC` (stereo unspecified), the IC50 is > 50 µM (inactive).

Consider `Oc1ccc2[nH]ccc2c1`, for which the IC50 is > 50 µM (inactive).

As for `COc1cc(N)c2nccc(Cl)c2c1`, the IC50 is > 50 µM (inactive).

With `CCn1nc(-c2ccccc2)nc2c(=O)n(C)c(=O)nc1-2`, the pIC50 is 6.87.

With `Oc1ccc(-c2onc(C(F)(F)F)c2-c2cscn2)c(O)c1`, the pIC50 is 4.75.

As to `COc1ccc(C2CC(=O)C3=C(C2)Nc2ncnn2C3c2ccccc2)cc1` (stereo unspecified), the IC50 was > 50 µM (inactive).

With `Nc1cc(N)c(OCC(F)(F)F)cc1OCC(F)(F)F`, the IC50 result was “inactive”.

`CC(=O)c1ccc(NC(=O)CSc2nnc(Cc3cccn3C)n2-c2ccc(F)cc2)cc1`: the IC50 is > 50 µM (inactive).

Take `CCc1cc(C(=O)Cc2ccc(F)cc2)c(O)cc1O`: the IC50 was > 50 µM (inactive).

Take `O=C(O)c1cc(O)c2c(c1)C(=O)c1cccc(O)c1C2=O`: the pIC50 was 5.48.

Regarding `Cc1nnc(NC(=O)CSc2nc(N)cc(N)n2)s1`, the IC50 was > 50 µM (inactive).

As for `O=[N+]([O-])c1ccc(O)c2cccnc12`, the IC50 is > 50 µM (inactive).

Regarding `O=C(COc1ccccc1Cl)c1ccc(O)cc1O`, the IC50 is > 50 µM (inactive).

As to `Nc1ccc(NS(=O)(=O)c2ccccc2)c(O)c1`, the IC50 was > 50 µM (inactive).

With `COc1ccc(-c2nc(CS(=O)CC(=O)NCc3ccccn3)c(C)o2)cc1` (stereo unspecified), the pIC50 is 4.72.

As for `Cc1cc(=O)oc2c(N)c(O)ccc12`, the IC50 was > 50 µM (inactive).

As to `O=S(=O)(Cc1ccc(Cl)cc1)Nc1ccc2c(c1)OCO2`, the IC50 was > 50 µM (inactive).

Turning to `Oc1cc(O)c2ncccc2c1`, the IC50 was > 50 µM (inactive).

Turning to `CCCCCC(=O)N1CC2(C)CN(C(=O)CCCCC)CC(C)(C1)C2=O`, the IC50 was > 50 µM (inactive).

`N#Cc1cc(S(=O)(=O)Nc2cc(O)cc3cccnc23)ccc1F`: the IC50 result is “inactive”.

In the case of `c1ccc2[nH]c(SCc3ccc(-c4nnco4)cc3)nc2c1`, the IC50 was > 50 µM (inactive).

Take `C=CCn1c(NC(=O)c2ccccc2Cl)c(C#N)c2nc3ccccc3nc21`: the IC50 was > 50 µM (inactive).

Take `Cc1ccc(S(=O)(=O)Nc2ccc(F)c(-c3c(O)ccc4c3OCO4)c2)cc1`: the pIC50 is 4.60.

In the case of `OCCCc1nc2n(n1)C(c1ccccc1)C=C(c1ccccc1)N2` (stereo unspecified), the IC50 is > 50 µM (inactive).

In the case of `Cc1ccc(S(=O)(=O)C(CCC(=O)N2CCOCC2)S(=O)(=O)c2ccc(C)cc2)cc1`, the IC50 was > 50 µM (inactive).

For the compound `Cc1ccccc1Nc1cc2ccccc2c(=O)[nH]1`, the IC50 result was “inactive”.

In the case of `CCc1cc(C(=O)Cc2cscn2)c(O)cc1O`, the IC50 was > 50 µM (inactive).

As to `COc1ccc(S(=O)(=O)Nc2ccc(N)c(-c3ccccc3O)c2)cc1OC`, the IC50 was > 50 µM (inactive).

Regarding `N#C/C(=C\c1ccc(O)c(O)c1)C(=O)NCCCc1ccccc1`, the pIC50 is 4.72.

For the compound `Nc1cccc(S(=O)(=O)Nc2ccc(N)c(-c3ccccc3O)c2)c1`, the IC50 is > 50 µM (inactive).

With `Cc1ccc(S(=O)(=O)Nc2ccc(O)c(-c3ccccc3O)c2)cc1`, the IC50 is > 50 µM (inactive).

`NCCCCCNc1cc(O)cc2cccnc12`: the pIC50 was over 5.81.

Take `COc1ccc(C2=NO[C@@H]3C(=O)N(c4ccc5c(c4)OCCO5)C(=O)[C@H]23)cc1OC`: the pIC50 is 4.53.

Consider `COc1cc(NCCCC(C)=O)c2nccc(OCc3ccccc3)c2c1`, for which the IC50 was > 50 µM (inactive).

As to `O=C(NC1(O)C(=O)c2ccccc2C1=O)c1ccccc1`, the negative-log IC50 (pIC50) is 4.71.

As to `C=CCNC(=O)CN(c1cccc(Br)c1)S(C)(=O)=O`, the IC50 is > 50 µM (inactive).

Turning to `O=C(c1sc2ccccc2c1Cl)N(Cc1ccco1)C1CCS(=O)(=O)C1` (stereo unspecified), the IC50 was > 50 µM (inactive).

With `COc1cccc2c1C(=O)c1c(O)c3c(c(O)c1C2=O)C[C@@](O)(C(=O)CO)C[C@@H]3O[C@H]1C[C@H](N)[C@H](O)[C@H](C)O1`, the pIC50 was 6.58.

For the compound `Nc1cc2c(c(O)c1O)C(=O)c1ccccc1C2=O`, the pIC50 is over 5.81.

For the compound `Cc1ccc(S(=O)(=O)N2CCC(C(=O)N[C@@H](C)C(=O)Nc3ccc4c(c3)OCO4)CC2)cc1`, the pIC50 is 4.92.

For the compound `CCOC(=O)c1sc(NC(=O)CSc2nnc(-c3ccc(OC)cc3)n2CCOC)nc1C`, the IC50 was > 50 µM (inactive).

With `CCC(C)NCCNc1cc(OC)cc2cccnc12` (stereo unspecified), the pIC50 is 5.51.

With `O=[N+]([O-])c1ccc(NS(=O)(=O)c2ccccc2)c(O)c1`, the IC50 is > 50 µM (inactive).

Take `O=c1c(-c2ccc3c(c2)OCCO3)coc2c(CN3CCOCC3)c(O)ccc12`: the IC50 was > 50 µM (inactive).

`O=C(NC1(C(F)(F)F)Oc2ccc(Cl)cc2O1)N1CCC2(CC1)OCCO2` (stereo unspecified): the pIC50 is 4.63.

As to `O=C1C(c2c(O)[nH]c3ccc([N+](=O)[O-])cc23)=Nc2ccccc21`, the pIC50 is over 5.81.

For the compound `O=C1c2ccccc2C(O)(O)C1(O)C1(O)C(=O)c2ccccc2C1(O)O` (stereo unspecified), the negative-log IC50 (pIC50) was 5.30.

For `O=C(Nc1nc(-c2ccc3c(c2)OCO3)cs1)C1COc2ccccc2O1` (stereo unspecified), the IC50 was > 50 µM (inactive).

On to `Nc1cc(=O)c2n[nH]nc2[nH]1`, for which the IC50 was > 50 µM (inactive).

Consider `COc1cc(NCCCC(C)=NO)c2nccc(OCc3ccccc3)c2c1`, for which the IC50 was > 50 µM (inactive).

For `CC(Cc1ccc(O)c(O)c1)C(C)Cc1ccc(O)c(O)c1` (stereo unspecified), the pIC50 was 5.58.

Consider `NCc1cc(S(=O)(=O)Nc2cc(O)cc3cccnc23)ccc1F`, for which the IC50 is > 50 µM (inactive).

`CCS(=O)(=O)NCc1ccc2[nH]c3c(c2c1)CCCC3`: the pIC50 was 4.53.

As for `N#Cc1c(-c2ccco2)[nH]c(=O)[nH]c1=O`, the IC50 was > 50 µM (inactive).

Turning to `CCCC(C)N(CC)CCNc1cc(OC)cc2cccnc12` (stereo unspecified), the negative logarithm of the IC50 (pIC50) was 4.90.

With `COc1ccc(S(=O)(=O)Nc2ccc3c(c2)OCO3)cc1OC`, the IC50 entry is “inactive”.

As to `Nc1cccc(S(=O)(=O)Nc2ccc(O)c(-c3ccccc3O)c2)c1`, the IC50 was > 50 µM (inactive).

For the compound `CCOc1cc(N2CCOCC2)c(OCC)cc1NC1=NCCCCC1`, the pIC50 was 4.89.

For the compound `O=C(CSc1nnc(Cc2cc(=O)[nH]c(=O)[nH]2)n1-c1ccccc1)NCC1CCCO1` (stereo unspecified), the IC50 is > 50 µM (inactive).

For `COc1cc(NC(=O)CCCCCCN)c2ncccc2c1`, the IC50 is > 50 µM (inactive).

As for `CC1(C)CC(=O)c2c(O)cc(O)cc2O1`, the IC50 was > 50 µM (inactive).

As for `Oc1ccc(-c2nc(-c3ccc(O)c(O)c3)cs2)cc1`, the pIC50 is 6.13.

For the compound `Nc1ccc(NS(=O)(=O)c2ccccc2[N+](=O)[O-])cc1-c1ccccc1O`, the IC50 is > 50 µM (inactive).

Regarding `CC(C)NCCCCCNc1cc(O)cc2cccnc12`, the pIC50 is 5.20.

For the compound `Cc1occc1C(=O)NC(C)C(C)(C)C` (stereo unspecified), the IC50 is > 50 µM (inactive).

`COc1cc(N)c2nccc(OCc3ccccc3)c2c1`: the IC50 is > 50 µM (inactive).

On to `Nc1ccc(Cc2ccccc2)c(O)c1`, for which the IC50 was > 50 µM (inactive).

As to `CCOC(=O)N1CCC(NC(=O)CSCc2nc(-c3sccc3C)oc2C)CC1`, the IC50 is > 50 µM (inactive).

Take `CC(=O)Oc1cc2oc(=O)cc(C)c2cc1OC(C)=O`: the IC50 was > 50 µM (inactive).

On to `COc1ccc(N2C(=O)CSC23C(=O)N2CCCc4cccc3c42)cc1` (stereo unspecified), for which the IC50 was > 50 µM (inactive).

Take `Nc1cc(N)nc(SCCOc2ccccc2F)n1`: the IC50 is > 50 µM (inactive).

Take `CCOC(=O)C1=C(C)OC(N)=C(C(=O)OCC)C1c1cccnc1` (stereo unspecified): the IC50 was > 50 µM (inactive).

For the compound `CCOc1ccc(S(=O)(=O)Nc2ccc3c(c2)OCO3)c2cccnc12`, the pIC50 is 4.80.

On to `COc1ccc2c3c(cccc13)NN=C2C`, for which the pIC50 is 5.08.

Take `COc1cc(NCCCC(C)=O)c2nccc(Cl)c2c1`: the IC50 was > 50 µM (inactive).

For the compound `CCN(CC)CCCCCNc1cc(O)cc2cccnc12`, the pIC50 was 5.20.

Take `COc1ccc(N2CSC3=C(C#N)C(c4ccc(OC)c(OC)c4)CC(=O)N3C2)c(OC)c1` (stereo unspecified): the IC50 is > 50 µM (inactive).

As for `CC(=O)Nc1cc(OC(C)=O)c2nonc2c1OC(C)=O`, the pIC50 was 5.24.

Regarding `CCCC(C)C(=O)Nc1cc(OC)ccc1OC` (stereo unspecified), the IC50 is > 50 µM (inactive).

For `COc1ccc2c(c1-c1cc(NS(=O)(=O)c3cc(Cl)ccc3Cl)ccc1N)OCO2`, the IC50 was > 50 µM (inactive).

Take `O=C(NCc1cccnc1)C1c2ccccc2C(=O)N1Cc1ccco1` (stereo unspecified): the IC50 is > 50 µM (inactive).

Take `NNc1ccc2c(Cl)cc(Cl)c(O)c2n1`: the IC50 was > 50 µM (inactive).

As to `C[C@H]1CCC[C@H](O)CCCCCc2cc(O)cc(O)c2C(=O)O1`, the pIC50 was 5.58.

For the compound `CCN(CC)CC(O)c1ccnc2c(O)cccc12` (stereo unspecified), the IC50 was > 50 µM (inactive).

With `COc1cccc(C(=O)NCC(=O)n2nc(C)cc2C)c1`, the IC50 was > 50 µM (inactive).

As to `COc1ccc(OC)c(-n2c(C)nc3cc(C(=O)O)ccc32)c1`, the pIC50 was 4.53.

For `CCOc1ccc2ccccc2c1-c1cc(NS(=O)(=O)c2cc(Cl)ccc2Cl)ccc1NC(=O)OC(C)(C)C`, the IC50 was > 50 µM (inactive).

The values above are taken from PubChem BioAssay AID712 (Emory University Molecular Libraries Screening Center, 2007).
